Data on 29 compounds can be found in publication PMC5498548.

The target in assay [1] is T1, IdeR (Mycobacterium tuberculosis, UniProt P9WMH1). Briefly: biochemical. The note with it: EMSA. In general terms: Mobility shift assays separate free from complexed probe on a gel.
For assay [2], the target named is T1, IdeR. Nature of the assay: EMSA competition experiments with increasing labeled DNA. The assay is classed as biochemical. The note with it: DNA 0.8 pmoles to 12.8 pmoles.
For assay [3], the system named is THP-1 (human monocytic macrophage cell line). Briefly: Cytotoxicity by REMA in THP-1. It counts as cell-based. As to conditions: for Inhibition in THP1 (IC50 in µg/ml): 1-200 µg/ml; for IC50: Homo sapiens, THP-1, 1-200 µg/ml, read-out: Inhibition in THP1 (IC50 in µg/ml). As for the experimental part: (§1) The cytotoxicity of the compounds was determined by employing REMA using various mammalian cell lines such as THP-1 (human monocytic macrophage cell line), HEK (Human Embryonic Kidney cell line), MDCK (Madine darby canine kidney cell line) and HepG2 (Human hepatocellular carcinoma cell line). 1 × 10^4 cells/well were employed in a sterilized 96-well plate containing serial dilutions of compounds ranging from 1 µg/ml to 200 µg/ml concentration, in their respective media (RPMI for THP-1, DMEM for HEK and HepG2 and MEM for MDCK) with 10% fetal bovine serum and Antibiotic-Antimycotic mix (Invitrogen Corporation, Carlsbad, California, USA). IC50 is defined as the concentration of the compound that causes 50% reduction in the fluorescence intensity indicating 50% viable cells. IC50 values were determined from the results of at least two independent tests and Mean ± S.E.M was calculated from the inhibition curve using GraphPad Prism 5.

Assay [4] deals with M. tuberculosis. Nature of the assay: Resazurin microtiter assay (REMA) whole cell MIC90 in broth culture. It counts as cell-based, Mycobacterium tuberculosis. The note with it: MB7H9 medium, Mean ± S.E., three experiments; for MIC90: Mycobacterium tuberculosis, read-out: MIC90 of compounds against M. tuberculosis.
Assay [5] deals with HEK (Human Embryonic Kidney cell line). Nature of the assay: Cytotoxicity by REMA in HEK. It counts as cell-based. The note with it: 1-200 µg/ml; for IC50: Homo sapiens, read-out: Inhibition in HEK (IC50 in µg/ml). As for the experimental part: as §1
For assay [6], the system named is MDCK (Madine darby canine kidney cell line). Nature of the assay: Cytotoxicity by REMA in MDCK. The assay is classed as cell-based. As to conditions: 1-200 µg/ml; for IC50: Canis lupus familiaris, MDCK, read-out: Inhibition in MDCK (IC50 in µg/ml). As for the experimental part:
as §1

Assay [7] concerns HepG2 (Human hepatocellular carcinoma cell line). Nature of the assay: Cytotoxicity by REMA in HepG2. The assay is classed as cell-based. The note with it: for Inhibition in HepG2 (IC50 in µg/ml): 1-200 µg/ml; for IC50: Homo sapiens, HepG2, 1-200 µg/ml, read-out: Inhibition in HepG2 (IC50 in µg/ml). As for the experimental part: as §1
[8] abbreviates: 0.35 µg IdeR, 0.8 picomoles labeled DNA, 200 µM NiSO4, inhibitor 0.4-100 µg/ml.
Setting [9] is: same values given in µM, read-out: IC50.
[10] abbreviates: 0.35 µg IdeR, 0.8 picomoles labeled DNA, 200 µM NiSO4, inhibitor 0.4-100 µg/ml, read-out: IC50 (µg/ml) (converted).

≈ marks a conversion by molar mass, not a printed value. Where “and” joins values, the source holds several entries; their conditions need not be identical. Equal entries are not always repeated. Structures can show the parent of a compound that is named as a salt. Where two headings read alike, the source gives them in different places. Where only a bound is given, the exact number is not on record here.

T1 sequence (P9WMH1 whole entry, looked up): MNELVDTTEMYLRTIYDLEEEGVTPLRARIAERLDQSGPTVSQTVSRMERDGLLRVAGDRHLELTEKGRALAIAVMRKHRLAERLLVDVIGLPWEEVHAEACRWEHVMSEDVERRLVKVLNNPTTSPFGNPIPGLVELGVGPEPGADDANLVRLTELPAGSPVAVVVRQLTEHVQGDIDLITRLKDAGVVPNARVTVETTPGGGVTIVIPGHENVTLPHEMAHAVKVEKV

“4-oxo-3-({4-[-(4-sulfophenyl)diazenyl]phenyl}hydrazono)-3,4-dihydro-1-naphtalenesulfonic acid [IS-7]”: the “IC50” value in assay [1] (setting [8]) came to 32.13 ± 1.56 µg/mL; in assay [1] (setting [9]) it was 57.5 µM.
For “5[phenylimino)methyl]benzene-1,2,3 triol [IS-51]”, the “IC50” value in assay [1] (setting [8]) was 16.5 µg/mL and 16.52 ± 1.72 µg/mL; in assay [1] (setting [9]), 72 µM.
`O=C1OC(C=Cc2ccccc2)=NC1=Cc1cccc([N+](=O)[O-])c1` [Compound I-18, 4-(3-nitrobenzylidene)-2-[2-phenylethenyl]-1,3-oxazol5(4H)-one]: the IC50 in assay [1] (setting [10]) and in assay [1] (setting [9]) was 43.7 µM each time.
With `NC(CC(=O)O)C(=O)OCc1cccc(/N=N/c2ccccc2)c1` (centres unmarked) [Compound I-21], the IC50 in assay [1] (setting [10]) was 16.7 µM; in assay [1] (setting [9]), 16.8 µM. Also, in assay [2], the “mode of inhibition in competition with DNA” value is “competing with DNA”.
Regarding `Cc1cc(=O)oc2c(CNC(C)C(=O)O)cc(O)cc12` (centres unmarked) [Compound I-38], the entries for the “IC50” value in assay [1] (setting [8]) and in assay [1] (setting [9]) were 100 ± 3.176 µg/mL and 361 µM, respectively.
`O=S(=O)(Nc1ccc(Cl)cc1NS(=O)(=O)c1ccccc1)c1ccccc1` [Compound I-85, N,N`-(4-chlorobenzene-1,2-diyl)dibenzenesulfonamide]: the IC50 in assay [1] (setting [10]) is 67.2 µM; in assay [1] (setting [9]), 67.1 µM.
Regarding `O=C(NN=c1ccc([N+](=O)[O-])c[nH]1)Nc1ccc(-c2ccccc2)cc1` [Compound I-89, N-(biphenyl-4-yl)-2-(5-nitropyridin-2(1H)-ylidene)hydrazinecarboxamide], the IC50 in assay [1] (setting [10]) is 83.3 µM; in assay [1] (setting [9]), 83.4 µM.
`Cc1ccccc1N=Nc1ccc2c(S(=O)(=O)[O-])cccc2c1O.[Na+]` [Compound I-90, 1-Naphthalenesulfonic acid,5-hydroxy-6-[(2-methylphenyl)azo]-monosodium salt]: the “IC50” value in assay [1] (setting [8]) amounted to 45.27 ± 1.3 µg/mL; in assay [1] (setting [9]), 124 µM.
`O=C1N[C@H]2CCCC[C@@H]2C(=O)N1OS(=O)(=O)c1ccccc1` [Compound I-91, (4As,8As)-3-[(phenylsulfonyl)oxy]hexahydroquinazoline-2,4(1H,3H)-dione]: the IC50 in assay [1] (setting [10]) and in assay [1] (setting [9]) was 231 µM each time.
For the compound `NC(Cc1c[nH]c2cc(OCc3ccccc3)ccc12)C(=O)O` (centres unmarked) [Compound I-92, 2-amino-3-[6-(benzyloxy)-1H-indol-3-yl]propanoic acid], the IC50 in assay [1] (setting [10]) and in assay [1] (setting [9]) was 189 µM throughout.
For the compound `Cc1c2ccccc2nc(C[S+]([O-])c2ccccc2)[n+]1[O-]` (centres unmarked) [Compound I-93, 4-methyl-2-[(phenylsulfinyl)methyl]quinazoline 3-oxide], the IC50 in assay [1] (setting [10]) was 181 µM; in assay [1] (setting [9]), 182 µM.
For `Oc1ccc(/C=N\c2ccccc2/N=C\c2ccc(O)c(O)c2)cc1O` [Compound I-103, 4,4`-{benzene-1,2-diylbis[nitrilo(Z)methylylidene]}dibenzene-1,2-diol] the same measures were 95.6 µM and 95.6 µM.
For `O=C(NN1C(=O)C=C(O)C1=Cc1ccccc1)c1ccccc1` [Compound I-112, N-[2-benzylidene-3-hydroxy-5-oxo-2,5-dihydro-1H-pyrrol-1-yl]benzamide], the IC50 in assay [1] (setting [10]) and in assay [1] (setting [9]) was 170 µM in each case.
`Cc1ccccc1NC(=O)Nc1cccc(-c2nnc(Cc3ccc4c(c3)OCO4)o2)c1` [IA8, 3-[3-[5-(1,3-benzodioxol-5-ylmethyl)-1,3,4-oxadiazol-2-yl]phenyl]-1-(o-tolyl) urea]: the IC50 in assay [1] (setting [10]) is 143 µM.
Turning to `O=S(=O)(O)c1ccc(O)c(/N=N/c2ccc(O)cc2O)c1` [IS-2, Benzensulfonic acid, 3-[(2,4-dihydroxyphenyl)azo]-4-hydroxy], the IC50 in assay [1] (setting [10]) was 17.4 µM and 17.7 µM; in assay [1] (setting [9]) it was 16.3 µM.
For orientation: MIC90 means an inhibitory concentration at the 90% level, which refers to growth in some studies and to a panel of isolates in others. As for `COc1ccc(-c2nc3ccccc3s2)cc1S(=O)(=O)O` [IS-4, 5-(1,3-benzothiazol-2-yl)-2-methoxybenzenesulfonic acid], the IC50 in assay [1] (setting [10]) was 45.1 µM; in assay [1] (setting [9]), 42.1 µM; in assay [3] it was 166 ± 3.72 µg/mL (≈ 516 µM); in assay [5], 164.7 ± 1.24 µg/mL (≈ 512 µM); in assay [6], 173 ± 2.3 µg/mL (≈ 538 µM); in assay [7], 176.3 ± 1.6 µg/mL (≈ 549 µM). In addition, the “Inhibition in THP1 (IC50 in µg/ml)” value in assay [3] is recorded as “slight toxicity”. In addition, in assay [4], the MIC90 amounted to 100 µg/mL (≈ 311 µM). Further, the “Inhibition in HEK (IC50 in µg/ml)” value in assay [5] is “slight toxicity”. Also, the “Inhibition in MDCK (IC50 in µg/ml)” value in assay [6] is recorded as “slight toxicity”. In addition, the “Inhibition in HepG2 (IC50 in µg/ml)” value in assay [7] was “slight toxicity”.
For `O=S(=O)(O)c1cccc2cccc(N=Nc3c(O)ccc4ccccc34)c12` [IS-6, 8-[-(2-hydroxynaphthalen-1-yl)diazenyl]naphthalene-1-sulfonic acid], the figures for the IC50 in assay [1] (setting [10]) and in assay [1] (setting [9]) were 57.2 µM and 54 µM, respectively.
For the compound `Nc1ccc(N=Nc2ccc(N=Nc3ccc(N=Nc4cc(S(=O)(=O)O)c5ccccc5c4O)c4ccc(S(=O)(=O)O)cc34)c3ccc(S(=O)(=O)O)cc23)cc1` [IS-8, 1-Naphthalenesulfonic acid, 3-[[4-[[4-[(4-aminophenyl)azo]-6-sulfo-1-naphthalenyl]azo]-6-sulfo-1-naphthalenyl]azo]-4-hydroxy-,trisodium salt], the IC50 in assay [1] (setting [10]) was 0.813 µM and 0.822 µM; in assay [1] (setting [9]) it was 0.75 µM.
As to `O=S(=O)([O-])c1cc(N=Nc2c(O)ccc3ccccc23)c2c(S(=O)(=O)[O-])cccc2c1.[Na+].[Na+]` [IS-9, 8-[-(2-hydroxynaphthalen-1-yl)diazenyl]naphthalene-1,6-disulfonic acid, disodium salt], the “IC50” value in assay [1] (setting [8]) was found to be 13.9 ± 7.37 µg/mL; in assay [1] (setting [9]), 27.6 µM.
With `O=S(=O)(O)c1ccc(O)c(/N=N/c2ccc(O)cc2O)c1` [IS-12, Benzene sulfonic acid, 3-[(2,4-dihydroxyphenyl)azo]-4-hydroxy], the IC50 in assay [1] (setting [10]) was 15.1 µM; in assay [1] (setting [9]), 15.2 µM.
For `Nc1ccc(-c2nc3ccccc3s2)cc1S(=O)(=O)O` [IS-32, 2-Amino-5-(1,3-benzothiazol-2-yl) benzenesulfonic acid] the same measures were 68.3 µM and 64.8 µM.
The corresponding values for `Cc1cc(=O)oc2c(CNC(C(=O)O)C(C)O)c(O)ccc12` (centres unmarked) [IS-40, 3-hydroxy-2-{[(7-hydroxy-4-methyl-2-oxo-2H-chromen-8-yl)methyl]amino}butanoic acid] are 269 µM and 275 µM.
Take `O=S(=O)(O)c1ccc2c(N=Nc3cccc4ccccc34)c(O)c(S(=O)(=O)O)cc2c1` [IS-45, 2,7-naphthalenedisulfonic acid, 3-hydroxy-4-(1-napthalenylazo)]: the “IC50” value in assay [1] (setting [8]) amounted to 20.19 ± 1.74 µg/mL; in assay [1] (setting [9]), 40 µM.
As for `Oc1ccccc1C=Nc1ccccc1N=Cc1ccccc1O` [IS-47], the results for the “IC50” value in assay [1] (setting [8]) and in assay [1] (setting [9]) were 84 ± 1.2 µg/mL and 266 µM, respectively.
For `Nc1ccc(-c2nc3ccccc3s2)cc1` [IS-54, 4-(1,3-benzothiazol-2-yl)aniline], the IC50 in assay [1] (setting [10]) is 49.5 µM; in assay [1] (setting [9]), 49.6 µM; in assay [3], 182 ± 5.2 µg/mL (≈ 802 µM); in assay [5], 161 ± 4.22 µg/mL (≈ 712 µM); in assay [6], 174 ± 6.4 µg/mL (≈ 770 µM); in assay [7], 167 ± 3.78 µg/mL (≈ 740 µM). Further, the “Inhibition in THP1 (IC50 in µg/ml)” value in assay [3] is reported as “slight toxicity”. Besides, the “MIC90 of compounds against M. tuberculosis” value in assay [4] was 84.8 ± 8 µg/mL. Also, the MIC90 in assay [4] was found to be 84.8 µg/mL (≈ 375 µM). The “Inhibition in HEK (IC50 in µg/ml)” value in assay [5] is “slight toxicity”. The “Inhibition in MDCK (IC50 in µg/ml)” value in assay [6] is listed as “slight toxicity”. The “Inhibition in HepG2 (IC50 in µg/ml)” value in assay [7] is “slight toxicity”.
Regarding `O=S(=O)(O)c1cccc2c(O)c(N=Nc3cccc4ccccc34)ccc12` [IS-55, 1-napthalenesulfonic acid,5-hydroxy-6-(1-naphthalenylazo)], the entries for the “IC50” value in assay [1] (setting [8]) and in assay [1] (setting [9]) were 6.6 ± 1.95 µg/mL and 16.4 µM, respectively.
As to `COc1ccccc1N=Nc1cc(S(=O)(=O)O)c2ccccc2c1O` [IS-59], the “IC50” value came to 18.64 ± 1.532 µg/mL in assay [1] (setting [8]) and 48.9 µM in assay [1] (setting [9]).
The corresponding values for `O=S(=O)(Nc1c(Cl)c(Cl)c(Cl)c(Cl)c1NS(=O)(=O)c1ccccc1)c1ccccc1` [IS-70, N,N-(3,4,5,6-tetrachlorobenzene-1,2-diyl) dibenzenesulfonamide] are 46.44 ± 1.486 µg/mL and 88.3 µM.
For the compound `CO[C@H]1/C=C/O[C@@]2(C)Oc3c(C)c(O)c4c(O)c(c(/C=N/N5CCN(C)CC5)c(O)c4c3C2=O)NC(=O)/C(C)=C\C=C\[C@H](C)[C@H](O)[C@@H](C)[C@@H](O)[C@@H](C)[C@H](OC(C)=O)[C@@H]1C` [Rifampicin, reference compound], the IC50 in assay [3], in assay [5], in assay [6] and in assay [7] was > 100 µg/mL throughout. Also, in assay [4], the MIC90 is 0.05 to 0.2 µg/mL (≈ 0.0608 to 0.243 µM).
